Each structure is given as a SMILES string.

Consider two molecules from US6300065A, “Yeast cell surface display of proteins and uses thereof” (Board of Trustees of the University of Illinois, priority 1998, dated 2001).

The subject of experiment [1] is 4-4-20 anti-fluorescein scFv mutant 4M1.2, yeast surface displayed Aga2p fusion. Nature of the experiment: Competitive dissociation of labeled antigen from yeast surface displayed scFv, followed by flow cytometry. It counts as binding. Particulars: 23° C., 5-aminofluorescein as competitor. The procedure:
(§1) Yeast cells bearing plasmid pCT202 were grown and labeled with anti-c-myc mAb 9E10 and FITC-dextran or biotin-fluorescein, as described. A fraction of the labeled population was analyzed flow cytometrically to determine the initial level of fluorescence. Non-fluorescent competitor (5-aminofluorescein) was added to a final concentration of approximately […] (~1000-fold excess) and the FITC or PE fluorescence of the c-myc positive cell population was followed as a function of time at room temperature (21-23° C.) on a Coulter Epics XL. Data were fitted as an exponential decay. The probability that a polyvalent antigen is bound to the cell as a function of time is given by P=1-(1-e^-kt)^N, where N is the valency, k is the kinetic rate constant for dissociation, and t is time. For long times t, this reduces to P=Ne^-kt. Thus, extrapolation of data for long t to time zero yields P=N, or a fluorescence intensity of Fext =N Fo, where Fext is the extrapolated fluorescence at the time of competitor addition and Fo is the actual initial fluorescence.

The subject of experiment [2] is 4-4-20 anti-fluorescein scFv, wild-type, yeast surface displayed Aga2p fusion. The description is as above. It counts as binding. The following applies: 5-aminofluorescein as competitor. The procedure: as §1
Experiment [3] deals with 4-4-20 anti-fluorescein antibody. Particulars: stated in discussion, no method given; cited from earlier work.
The subject of experiment [4] is 4-4-20 anti-fluorescein scFv mutant 4M1.2. Nature of the experiment: Soluble fluorescein dissociation kinetics by spectrofluorometry (fluorescence quenching, whole cells displaying scFv). It counts as binding. Particulars: mutant 4M1.2 vs wild-type 4-4-20 scFv. The procedure: (§2) Binding to soluble fluorescein (FDS) was assayed by observing fluorescence quenching by whole cells displaying scFv. Cells were suspended at 2×10^7 cells/ml in TBS+0.1% BSA in a quartz cuvette thermostatted at 23° C. and titrated with FDS over a range of 0-7.5 nM. […] Control cells displaying an irrelevant scFv were titrated to obtain a slope for a two-parameter fit of an equilibrium binding model to the data, yielding equilibrium constants and effective scFv concentrations. Following the equilibrium titration, 5-aminofluorescein was added to 1 mM and the change in fluorescence of the sample followed with time to determine koff for FDS.

Experiment [5] deals with 4-4-20 anti-fluorescein scFv mutant 4M1.1. The experiment is described as above. In kind it is binding. Particulars: mutant 4M1.1 vs wild-type 4-4-20 scFv. The procedure: as §2

For the molecule `O=C(CCCCCNC(=O)CCCC[C@@H]1SC[C@@H]2NC(=O)N[C@@H]21)NCCCCCNC(=S)Nc1ccc2c(c1)C(=O)OC21c2ccc(O)cc2Oc2cc(O)ccc21` [fluorescein-biotin], the koff for fluorescein-biotin in experiment [1] was determined as 0.0028 s⁻¹; in experiment [2] (23° C., wild-type), 0.005 s⁻¹. In addition, in experiment [2] (21° C.), the “monovalent dissociation rate constant (koff) for fluorescein-biotin” value amounted to 0.0039 s⁻¹.
Turning to `O=C1OC2(c3ccc(O)cc3Oc3cc(O)ccc32)c2ccccc21` [fluorescein], the Kd – broadly, a measure of binding affinity in units of concentration – in experiment [3] is 0.4 nM. Besides, the “improvement of soluble fluorescein dissociation kinetics relative to wild-type” value in experiment [4] and in experiment [5] was 2.2 fold each time.
